From patent US20150119267A1, “INHIBITION OF COLONY STIMULATING FACTOR-1 RECEPTOR SIGNALING FOR THE TREATMENT OF BRAIN CANCER” (SLOAN-KETTERING INSTITUTE FOR CANCER RESEARCH, priority 2012, published 2015)

Test system: Mrc1
Experiment: Mrc1 expression in primary glioma cultures (flow cytometry)
Type: cell-based, mouse
Conditions: CD45+CD11b+ cells
Protocol: Macrodissected tumors were digested to a single cell suspension by incubation for 8-12 minutes at 37° C. as described above. The cell suspension was washed with Neural Stem Cell (NSC) Basal Media (Stem Cell Technologies), and centrifuged at low speed (750 rpm Sorvall Legend RT), to remove debris. To derive mouse primary glioma cultures, the cell pellet was resuspended in DMEM containing 10% FBS (Gibco). These primary cultures were used at early passage (P2-P3), and contain a mixture of different cell types found in gliomas including tumor cells, macrophages, and astrocytes as determined by immunofluorescence staining. Primary glioma cultures were grown for 24 hours on poly-L-lysine coated coverslips (BD Biocoat). Cells were then fixed with 4% PFA in 0.1M phosphate buffer overnight at 4° C., permeabilized with 0.1% Triton-X for 5 minutes and blocked with 0.5% PNB for at least one hour. […]
For mouse primary glioma cultures (containing a mixed population of tumor cells, TAMs, astrocytes etc.; see FIG. 15), 1×10^6 cells were cultivated in DMEM+10% FBS in the presence of the CSF-1R inhibitor or DMSO as vehicle (n=6 independently isolated cultures). […] Cells were counted and incubated with 1 μl of Fc Block (BD Pharmingen) per 10^6 cells for at least 15 minutes at 4° C. […]

Q: With CNC(=O)c1cc(Oc2ccc3nc(N[C@@H]4CCCC[C@H]4O)sc3c2)ccn1 [BLZ945] as the compound, how does the “Mrc1 in primary glioma cultures containing TAMs” value read?
A: The value was “decreased”.
